In ChEMBL document CHEMBL5653615 (J Biol Chem, 2013):

Assays:
[1] = biological target: Tyrosine-protein kinase HCK (Homo sapiens) (UniProt P08631); test: Inhibition of human HCK at 1.82 nM by HotSpot assay relative to control
[2] = biological target: Ribosomal protein S6 kinase beta-1 (Homo sapiens) (UniProt P23443); test: Inhibition of human RPS6KB1 at 1.82 nM by HotSpot assay relative to control
[3] = biological target: Cyclin-dependent kinase 5/CDK5 activator 1 (Homo sapiens) (UniProt Q00535+Q15078); test: Inhibition of human CDK5/p25 at 1.82 nM by HotSpot assay relative to control; assay type: protein-complex assay
[4] = biological target: Calcium/calmodulin-dependent protein kinase type II subunit beta (Homo sapiens) (UniProt Q13554); test: Inhibition of human CAMK2b at 1.82 nM by HotSpot assay relative to control
[5] = biological target: Serine/threonine-protein kinase pim-2 (Homo sapiens) (UniProt Q9P1W9); test: Inhibition of human PIM2 at 1.82 nM by HotSpot assay relative to control
[6] = biological target: T1, Phosphorylase b kinase gamma catalytic chain, liver/testis isoform (Homo sapiens) (UniProt P15735); test: Inhibition of human PHKg2 at 1.82 nM by HotSpot assay relative to control
T1 sequence (whole entry): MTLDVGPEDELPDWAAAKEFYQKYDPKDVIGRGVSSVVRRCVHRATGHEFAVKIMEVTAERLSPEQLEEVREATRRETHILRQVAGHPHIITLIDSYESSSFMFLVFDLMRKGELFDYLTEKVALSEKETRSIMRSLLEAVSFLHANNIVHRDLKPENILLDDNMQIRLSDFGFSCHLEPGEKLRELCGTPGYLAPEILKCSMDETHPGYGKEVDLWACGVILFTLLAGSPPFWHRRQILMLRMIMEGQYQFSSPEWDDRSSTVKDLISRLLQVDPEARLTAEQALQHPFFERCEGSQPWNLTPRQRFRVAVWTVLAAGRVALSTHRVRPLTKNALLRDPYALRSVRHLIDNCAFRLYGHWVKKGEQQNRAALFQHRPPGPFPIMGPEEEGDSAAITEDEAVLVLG

[7] = biological target: Mitogen-activated protein kinase 10 (Homo sapiens) (UniProt P53779); test: Inhibition of human JNK3 at 18.6 nM by HotSpot assay relative to control
[8] = biological target: Macrophage colony-stimulating factor 1 receptor (Homo sapiens) (UniProt P07333); test: Inhibition of human FMS at 18.6 nM by HotSpot assay relative to control
[9] = biological target: Mitogen-activated protein kinase 11 (Homo sapiens) (UniProt Q15759); test: Inhibition of human MAPK11 at 18.6 nM by HotSpot assay relative to control
[10] = biological target: STE20/SPS1-related proline-alanine-rich protein kinase (Homo sapiens) (UniProt Q9UEW8); test: Inhibition of human STLK3 at 18.6 nM by HotSpot assay relative to control
[11] = biological target: Casein kinase I isoform delta (Homo sapiens) (UniProt P48730); test: Inhibition of human CK1d at 18.6 nM by HotSpot assay relative to control
[12] = biological target: Protein-tyrosine kinase 6 (Homo sapiens) (UniProt Q13882); test: Inhibition of human BRK at 18.6 nM by HotSpot assay relative to control
[13] = biological target: Ribosomal protein S6 kinase alpha-3 (Homo sapiens) (UniProt P51812); test: Inhibition of human RSK2 at 18.6 nM by HotSpot assay relative to control
[14] = biological target: Serine/threonine-protein kinase PAK 5 (Homo sapiens) (UniProt Q9P286); test: Inhibition of human PAK5 at 18.6 nM by HotSpot assay relative to control
[15] = biological target: T2, Mitogen-activated protein kinase kinase kinase 5 (Homo sapiens) (UniProt Q99683); test: Inhibition of human ASK1 at 18.6 nM by HotSpot assay relative to control
T2 sequence (whole entry): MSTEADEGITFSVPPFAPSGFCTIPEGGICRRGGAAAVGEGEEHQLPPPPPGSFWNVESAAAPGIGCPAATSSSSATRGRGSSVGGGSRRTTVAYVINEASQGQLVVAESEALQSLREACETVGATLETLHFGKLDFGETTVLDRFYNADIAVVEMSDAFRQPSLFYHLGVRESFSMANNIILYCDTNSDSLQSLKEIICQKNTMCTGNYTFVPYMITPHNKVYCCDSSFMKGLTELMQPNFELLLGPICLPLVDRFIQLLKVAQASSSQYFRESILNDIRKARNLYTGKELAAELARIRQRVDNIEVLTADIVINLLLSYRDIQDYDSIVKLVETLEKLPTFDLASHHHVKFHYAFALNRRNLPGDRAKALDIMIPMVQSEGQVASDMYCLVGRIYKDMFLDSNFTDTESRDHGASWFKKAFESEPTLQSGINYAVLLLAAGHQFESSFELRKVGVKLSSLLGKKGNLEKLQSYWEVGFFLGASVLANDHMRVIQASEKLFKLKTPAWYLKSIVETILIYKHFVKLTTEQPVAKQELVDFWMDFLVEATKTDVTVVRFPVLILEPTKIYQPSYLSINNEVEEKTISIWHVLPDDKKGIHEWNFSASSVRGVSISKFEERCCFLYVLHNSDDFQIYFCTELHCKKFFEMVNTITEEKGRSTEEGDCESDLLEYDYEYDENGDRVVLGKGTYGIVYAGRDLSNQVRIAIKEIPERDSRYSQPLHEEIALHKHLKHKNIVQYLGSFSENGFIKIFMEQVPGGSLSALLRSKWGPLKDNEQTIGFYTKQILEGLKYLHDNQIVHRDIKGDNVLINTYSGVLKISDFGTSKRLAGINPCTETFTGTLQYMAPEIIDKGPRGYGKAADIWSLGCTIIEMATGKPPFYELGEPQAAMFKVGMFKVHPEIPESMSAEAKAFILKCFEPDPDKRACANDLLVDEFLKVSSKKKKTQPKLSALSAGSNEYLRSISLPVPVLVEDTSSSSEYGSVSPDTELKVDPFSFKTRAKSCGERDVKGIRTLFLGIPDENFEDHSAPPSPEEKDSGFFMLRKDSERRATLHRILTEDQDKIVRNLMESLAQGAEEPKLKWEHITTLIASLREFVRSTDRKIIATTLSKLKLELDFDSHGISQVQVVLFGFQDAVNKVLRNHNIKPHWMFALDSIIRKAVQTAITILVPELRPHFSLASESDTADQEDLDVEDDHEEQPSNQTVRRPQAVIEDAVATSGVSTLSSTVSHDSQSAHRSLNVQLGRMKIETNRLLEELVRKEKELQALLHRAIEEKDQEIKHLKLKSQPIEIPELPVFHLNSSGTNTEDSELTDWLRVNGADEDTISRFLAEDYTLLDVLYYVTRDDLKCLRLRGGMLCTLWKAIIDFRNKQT

[16] = biological target: Calcium/calmodulin-dependent protein kinase kinase 1 (Homo sapiens) (UniProt Q8N5S9); test: Inhibition of human CAMKK1 at 500 nM by HotSpot assay relative to control
Chain of Calcium/calmodulin-dependent protein kinase kinase 1 (Homo sapiens) (Q8N5S9 whole entry, looked up): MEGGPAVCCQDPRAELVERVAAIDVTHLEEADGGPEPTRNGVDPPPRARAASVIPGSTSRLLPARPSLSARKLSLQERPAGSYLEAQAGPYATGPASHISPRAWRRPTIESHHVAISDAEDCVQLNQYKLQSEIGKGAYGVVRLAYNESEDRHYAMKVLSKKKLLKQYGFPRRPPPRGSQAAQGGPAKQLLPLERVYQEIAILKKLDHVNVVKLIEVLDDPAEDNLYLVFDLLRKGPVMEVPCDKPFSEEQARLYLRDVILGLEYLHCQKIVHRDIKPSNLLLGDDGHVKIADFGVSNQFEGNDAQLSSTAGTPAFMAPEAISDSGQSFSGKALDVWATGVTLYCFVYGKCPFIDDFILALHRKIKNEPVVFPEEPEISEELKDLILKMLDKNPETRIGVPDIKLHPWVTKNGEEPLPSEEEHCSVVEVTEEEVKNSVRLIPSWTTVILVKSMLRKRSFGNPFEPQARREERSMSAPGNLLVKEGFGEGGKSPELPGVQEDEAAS

Chain of Serine/threonine-protein kinase pim-2 (Homo sapiens) (Q9P1W9 whole entry, looked up, canonical isoform): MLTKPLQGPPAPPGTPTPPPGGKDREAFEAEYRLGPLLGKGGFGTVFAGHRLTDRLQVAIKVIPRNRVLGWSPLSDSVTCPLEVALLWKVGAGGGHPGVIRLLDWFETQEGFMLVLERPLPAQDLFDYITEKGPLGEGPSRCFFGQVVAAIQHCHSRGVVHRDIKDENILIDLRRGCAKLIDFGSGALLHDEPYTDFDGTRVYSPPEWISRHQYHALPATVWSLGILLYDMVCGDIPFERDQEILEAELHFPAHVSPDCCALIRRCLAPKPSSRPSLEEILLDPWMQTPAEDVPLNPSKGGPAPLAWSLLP
Chain of Serine/threonine-protein kinase PAK 5 (Homo sapiens) (Q9P286 whole entry, looked up): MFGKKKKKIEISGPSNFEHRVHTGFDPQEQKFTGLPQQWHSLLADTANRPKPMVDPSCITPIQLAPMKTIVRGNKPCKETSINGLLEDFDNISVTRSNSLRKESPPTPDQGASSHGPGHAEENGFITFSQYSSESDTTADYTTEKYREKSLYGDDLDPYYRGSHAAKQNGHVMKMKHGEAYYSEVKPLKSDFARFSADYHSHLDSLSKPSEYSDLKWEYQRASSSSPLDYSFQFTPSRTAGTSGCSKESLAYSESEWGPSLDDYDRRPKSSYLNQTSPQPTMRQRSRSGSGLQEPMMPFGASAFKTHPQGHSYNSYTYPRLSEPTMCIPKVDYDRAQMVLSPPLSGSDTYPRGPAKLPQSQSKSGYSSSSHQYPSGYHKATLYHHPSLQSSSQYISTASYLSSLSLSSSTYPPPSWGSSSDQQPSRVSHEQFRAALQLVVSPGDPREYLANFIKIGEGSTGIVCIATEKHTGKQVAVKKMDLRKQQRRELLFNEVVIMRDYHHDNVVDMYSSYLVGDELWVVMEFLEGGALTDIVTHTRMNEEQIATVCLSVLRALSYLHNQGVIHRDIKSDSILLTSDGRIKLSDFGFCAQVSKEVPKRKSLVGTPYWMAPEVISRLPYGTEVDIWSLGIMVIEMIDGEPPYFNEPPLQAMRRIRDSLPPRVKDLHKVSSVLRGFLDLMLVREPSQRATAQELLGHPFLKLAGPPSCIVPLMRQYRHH
Chain of Mitogen-activated protein kinase 10 (Homo sapiens) (P53779 whole entry): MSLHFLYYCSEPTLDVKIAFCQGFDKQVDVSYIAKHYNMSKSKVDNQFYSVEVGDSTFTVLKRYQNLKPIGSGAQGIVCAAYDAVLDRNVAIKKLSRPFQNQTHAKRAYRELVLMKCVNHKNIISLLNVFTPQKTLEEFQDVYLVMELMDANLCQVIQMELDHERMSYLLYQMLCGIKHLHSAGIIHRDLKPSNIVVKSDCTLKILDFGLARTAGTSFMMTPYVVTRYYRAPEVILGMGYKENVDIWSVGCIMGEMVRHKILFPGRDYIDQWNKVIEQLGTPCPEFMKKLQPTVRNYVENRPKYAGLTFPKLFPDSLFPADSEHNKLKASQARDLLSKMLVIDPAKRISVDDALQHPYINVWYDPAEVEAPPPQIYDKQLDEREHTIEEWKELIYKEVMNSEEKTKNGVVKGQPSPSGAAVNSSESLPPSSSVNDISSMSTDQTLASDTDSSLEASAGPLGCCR
Chain of Cyclin-dependent kinase 5/CDK5 activator 1 (Homo sapiens) (Q00535 whole entry): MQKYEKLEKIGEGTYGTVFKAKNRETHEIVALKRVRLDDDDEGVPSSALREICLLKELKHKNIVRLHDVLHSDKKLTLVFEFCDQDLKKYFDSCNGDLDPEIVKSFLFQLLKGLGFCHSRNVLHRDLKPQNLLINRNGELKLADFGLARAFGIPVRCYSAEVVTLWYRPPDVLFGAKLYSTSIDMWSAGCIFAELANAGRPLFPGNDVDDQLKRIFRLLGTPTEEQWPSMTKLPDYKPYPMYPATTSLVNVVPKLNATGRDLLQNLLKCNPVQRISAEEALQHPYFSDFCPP
Chain of Cyclin-dependent kinase 5/CDK5 activator 1 (Homo sapiens) (Q15078 99-307 partner limits assumed): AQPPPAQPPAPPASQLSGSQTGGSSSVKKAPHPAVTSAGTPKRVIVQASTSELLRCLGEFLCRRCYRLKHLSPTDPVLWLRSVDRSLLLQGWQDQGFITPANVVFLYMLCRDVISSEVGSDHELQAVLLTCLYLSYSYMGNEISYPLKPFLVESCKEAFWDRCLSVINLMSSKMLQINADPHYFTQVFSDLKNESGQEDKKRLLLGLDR
Chain of Protein-tyrosine kinase 6 (Homo sapiens) (Q13882 whole entry, looked up): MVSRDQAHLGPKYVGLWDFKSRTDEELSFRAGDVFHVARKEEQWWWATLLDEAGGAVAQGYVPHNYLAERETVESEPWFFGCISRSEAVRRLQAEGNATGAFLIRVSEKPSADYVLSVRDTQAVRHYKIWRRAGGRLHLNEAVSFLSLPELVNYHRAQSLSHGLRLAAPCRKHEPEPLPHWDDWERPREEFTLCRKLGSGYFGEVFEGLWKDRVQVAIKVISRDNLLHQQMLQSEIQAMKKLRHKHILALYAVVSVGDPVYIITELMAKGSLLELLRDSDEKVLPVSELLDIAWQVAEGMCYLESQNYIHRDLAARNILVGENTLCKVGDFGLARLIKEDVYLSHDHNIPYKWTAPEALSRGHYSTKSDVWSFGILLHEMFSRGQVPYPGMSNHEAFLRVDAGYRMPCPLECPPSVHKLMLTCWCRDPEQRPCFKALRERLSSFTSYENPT
Chain of Ribosomal protein S6 kinase alpha-3 (Homo sapiens) (P51812 whole entry): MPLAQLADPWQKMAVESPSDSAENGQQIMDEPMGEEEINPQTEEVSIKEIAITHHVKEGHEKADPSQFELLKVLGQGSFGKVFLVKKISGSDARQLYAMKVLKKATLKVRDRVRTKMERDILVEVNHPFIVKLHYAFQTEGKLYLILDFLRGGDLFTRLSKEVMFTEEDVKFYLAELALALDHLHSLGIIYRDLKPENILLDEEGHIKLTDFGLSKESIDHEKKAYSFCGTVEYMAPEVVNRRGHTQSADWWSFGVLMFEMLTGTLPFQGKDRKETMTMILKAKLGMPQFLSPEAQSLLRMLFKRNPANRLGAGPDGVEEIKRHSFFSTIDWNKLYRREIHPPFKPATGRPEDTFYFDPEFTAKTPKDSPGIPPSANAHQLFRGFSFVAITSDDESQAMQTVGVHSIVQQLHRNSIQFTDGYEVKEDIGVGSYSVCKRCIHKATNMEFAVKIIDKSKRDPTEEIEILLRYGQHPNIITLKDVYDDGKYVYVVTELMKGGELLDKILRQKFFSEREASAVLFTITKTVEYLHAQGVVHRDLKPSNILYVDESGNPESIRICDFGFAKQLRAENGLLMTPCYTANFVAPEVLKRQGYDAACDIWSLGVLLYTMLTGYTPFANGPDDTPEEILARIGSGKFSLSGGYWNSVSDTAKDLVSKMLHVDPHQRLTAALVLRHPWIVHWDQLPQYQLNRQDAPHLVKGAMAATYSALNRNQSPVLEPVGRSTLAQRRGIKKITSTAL
Chain of Tyrosine-protein kinase HCK (Homo sapiens) (P08631 2-526 limits assumed): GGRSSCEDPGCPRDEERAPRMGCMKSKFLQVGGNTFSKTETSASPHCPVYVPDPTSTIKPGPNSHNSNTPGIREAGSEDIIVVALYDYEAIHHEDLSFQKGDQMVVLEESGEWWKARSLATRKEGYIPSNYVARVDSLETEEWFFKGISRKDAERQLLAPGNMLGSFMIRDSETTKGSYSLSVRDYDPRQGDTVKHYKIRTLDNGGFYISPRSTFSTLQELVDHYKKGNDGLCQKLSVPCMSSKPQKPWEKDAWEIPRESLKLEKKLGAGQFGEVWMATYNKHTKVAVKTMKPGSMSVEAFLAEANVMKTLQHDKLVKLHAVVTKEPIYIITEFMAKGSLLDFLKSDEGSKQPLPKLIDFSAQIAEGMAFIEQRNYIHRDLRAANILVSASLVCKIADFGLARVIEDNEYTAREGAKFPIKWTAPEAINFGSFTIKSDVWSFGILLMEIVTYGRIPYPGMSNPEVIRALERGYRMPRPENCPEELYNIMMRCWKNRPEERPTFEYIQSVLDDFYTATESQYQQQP
Chain of Ribosomal protein S6 kinase beta-1 (Homo sapiens) (P23443 whole entry, looked up): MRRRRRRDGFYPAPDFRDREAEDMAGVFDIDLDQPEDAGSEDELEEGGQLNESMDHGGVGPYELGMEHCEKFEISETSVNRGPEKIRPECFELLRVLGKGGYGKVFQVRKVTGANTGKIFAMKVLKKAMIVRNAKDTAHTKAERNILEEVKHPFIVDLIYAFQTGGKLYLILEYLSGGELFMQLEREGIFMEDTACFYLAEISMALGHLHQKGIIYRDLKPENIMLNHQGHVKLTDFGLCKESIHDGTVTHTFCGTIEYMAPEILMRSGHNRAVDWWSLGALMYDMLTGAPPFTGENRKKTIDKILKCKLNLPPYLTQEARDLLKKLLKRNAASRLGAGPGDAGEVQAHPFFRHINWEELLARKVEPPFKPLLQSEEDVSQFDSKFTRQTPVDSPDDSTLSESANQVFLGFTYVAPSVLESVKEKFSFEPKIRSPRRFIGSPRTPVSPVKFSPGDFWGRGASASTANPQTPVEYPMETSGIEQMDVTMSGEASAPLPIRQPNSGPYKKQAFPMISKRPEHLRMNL

C[C@@]1(C(=O)Nc2ccc(F)nc2)CCCN1c1nc(Nc2cc(C3CC3)n[nH]2)c2cccn2n1
inhibition [1]: 9.36% | inhibition [2]: -5.56% | inhibition [3]: 2.17% | inhibition [4]: 4.93% | inhibition [5]: -3.22% | inhibition [6]: -4.64%

C[C@]1(O)C[C@@H](c2nc(-c3ccc4ccc(-c5ccccc5)nc4c3)c3c(N)nccn32)C1
inhibition [7]: -3.24% | inhibition [8]: 5.25% | inhibition [9]: -4.21% | inhibition [10]: -7.19% | inhibition [11]: -2.47% | inhibition [12]: 3.64% | inhibition [13]: 1.82% | inhibition [14]: -1.6% | inhibition [15]: -8.46%

Oc1n[nH]c2nnc(-c3c(-c4ccccc4)nn4ccccc34)cc12
inhibition [16]: -9.31%
